Consider three compounds from publication PMC5663708, “Novel Benzylidene Thiazolidinedione Derivatives as Partial PPARγ Agonists and their Antidiabetic Effects on Type 2 Diabetes” (Scientific Reports, 2017).

Test [1] relates to STZ-NA-induced diabetic rats. Nature of the test: Antidiabetic activity in STZ-NA-induced type 2 diabetic rats. The protocol: The test dose was fixed based on the predicted LD50 value. […] Diabetic rats were orally treated with the test compounds at a dose of 36 mg/kg body weight for a period of 15 days. Fasting blood glucose of control, diabetic-untreated and diabetic-treated rats were tested on Days 1, 3, 7 and 15 of the treatment period (Fig. 6A).
Male Wistar strain rats weighing about 160–200 g were used for animal studies. […] Rats were provided with rodent diet and water ad libitum. […] The animals were allowed to drink 5% glucose solution overnight to prevent STZ-NA-induced hypoglycemia[82],[83]. The rats were considered as diabetic if their blood glucose levels were above 250 mg/dL on the 3rd day after STZ-NA injection. The rats were divided into four groups of six animals in each group. Control animals received normal saline (Group I). Diabetic rats received STZ-NA injection (Group II). […] The blood glucose level of each group was checked at 1, 3, 7 and 15 Day by withdrawing blood from tail vein of the animal using glucose meter (ACCu-Chek active, Roche, Diagnostics USA).
After pharmacological screening for antidiabetic activity, the animals were subjected to overnight fasting and blood was collected from retro-orbital region under light anaesthesia for performing various biochemical experiments. All the biochemical experiments were performed using commercially available kits. Total Hb was estimated by cyanomethaemoglobin method, while HbA1c was estimated from whole blood using commercially available kits following the manufacturer guidelines (ERBA Diagnostics Inc, Accurex Biomedical Pvt. Ltd., Coral clinical systems, India). TG concentration was determined by GPO-POD enzymatic-colorimetric method. TC level was measured by the end point, CHOD-POD colorimetric methods. HDL-C was assayed by the method reported earlier. VLDL-C and LDL-C in plasma were calculated by the Friedewald formula: VLDL-C = TG/5; LDL-C = TC-(HDL-C + VLDL-C)[88]. Levels of serum urea, uric acid, and creatinine were measured using commercially available kits[89].
Rats were sacrificed under light anesthesia using diethylether at the end of the pharmacological and biochemical studies. […] Then, the tissue was sliced out into sections of 5 µm thickness by a rotator microtome and stained with hematoxylin-eosin. Obtained sections were examined by a Leica DME microscope, and representative photomicrographs were taken by a 7.1 megapixel Canon Power Shot S70 digital camera.

Test [2] has as its system NIH/3T3 mouse embryonic fibroblast cells. Nature of the test: XTT cytotoxicity assay on NIH/3T3 cells. The conditions noted are these: Mus musculus, NIH3T3, 24 h. On the procedure: XTT is reduced to soluble formazan by this enzyme and formazan is quantified and directly proportional to the number of viable cells. […] NIH/3T3 cells were seeded at 1 × 10^4 cells into each well of 96-well plates. […] The XTT assay (Xenometrix, Allschwil, Switzerland) was performed according to the manufacturer’s instructions, after 24 h incubation with the compounds. The absorbance was determined after 2 h incubation at 480 nm with a reference wavelength of 680 nm using a microplate reader (BioTek, USA). […] The stock solutions of the compounds were prepared in DMSO and further dilutions were made with fresh culture medium. The final DMSO concentration was under 0.1%. Rosiglitazone and Pioglitazone were used as positive controls. All data were obtained from 3 independent experiments in quadruplicates.

Test [3] deals with T1, human PPARγ (hPPARγ) (Homo sapiens, UniProt P37231).
T1 construct: expressed in transfected cells; host or cells: HepG2 (human hepatoblastoma), transient calcium phosphate transfection
T1 sequence (P37231 238-503 limits assumed): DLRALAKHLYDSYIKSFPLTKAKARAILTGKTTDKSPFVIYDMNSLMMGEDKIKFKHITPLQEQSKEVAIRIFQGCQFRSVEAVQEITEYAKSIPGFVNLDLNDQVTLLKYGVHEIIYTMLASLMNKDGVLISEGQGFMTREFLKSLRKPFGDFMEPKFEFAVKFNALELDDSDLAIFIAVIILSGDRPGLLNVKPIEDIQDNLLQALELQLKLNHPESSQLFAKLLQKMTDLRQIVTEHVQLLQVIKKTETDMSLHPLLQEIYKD
Also noted: method as in earlier work. The conditions noted are these: PPARγ activity of metaglidasen; cited from earlier work.

The IC50 is the concentration that inhibits the measured activity by half. A lower IC50 goes with greater potency. As to `CCc1ccc(CCOc2ccc(CC3SC(=O)NC3=O)cc2)nc1` (stereo not shown) [Pioglitazone, reference compound], the blood glucose levels entry in test [1] (36 mg/kg oral, 15 days, vs diabetic control rats) is listed as “significantly reduced”. Also, in test [1] (36 mg/kg oral, 15 days, vs disease control (STZ + NA)), the Hb levels entry is recorded as “significant increase”. The “histological changes of pancreas (islets, β-cells)” value in test [1] (36 mg/kg, light microscopy, hematoxylin-eosin) was “restored to near normal”. Further, the half-maximal inhibitory concentration (IC50) in test [2] is more than 1000 µM.
In general, EC50 refers to the midpoint of the concentration-response curve. Regarding `CC(=O)NCCOC(=O)[C@H](Oc1cccc(C(F)(F)F)c1)c1ccc(Cl)cc1` [metaglidasen], in test [3], the EC50 is approximately 10 µM and the Emax result is “around 10%”.
In test [2], `CN(CCOc1ccc(CC2SC(=O)NC2=O)cc1)c1ccccn1` (stereo not shown) [Rosiglitazone, reference compound] came in with a half-maximal inhibitory concentration (IC50) of 662 ± 18 µM.
